{"source": "patent US4898815A", "about": "(priority 1983, dated 1990)", "test_system": "intestinal loop of C3H mice", "set-up": "species or system C3H mouse", "conditions": "mouse, in vivo"}
{"substance": "cholera toxin", "values": [{"measurement": "weight per cm of intestine (milligrams per centimeter of intestine)", "result": 126.7, "unit": "mg"}]}
